The structures appear in SMILES notation. Values joined by “and” are separate entries in the source; they are usually repeats but may differ in a detail not shown here. Identical values can stand only once.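 These data come from cells grown in 96-well plates and exposed to compound for 48 hours at five concentrations. GI50 is the concentration that inhibits growth by half. Definition used: TGI = concentration required for complete inhibition of growth.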 Bounds are passed on as bounds.

These results are taken from PubChem BioAssay (NCI).

Common to all, as to assay: DTP human tumour cell line panel, 48 h
For experiment [1], the system named is MDA-MB-231 breast.
Experiment [2] relates to OVCAR-5 ovarian.
Experiment [3] concerns OVCAR-8 ovarian.
The subject of experiment [4] is SF-295 CNS.
The test system of experiment [5] is HCC-2998 colon.
Experiment [6] concerns OVCAR-4 ovarian.
The subject of experiment [7] is T-47D breast.
Experiment [8] relates to NCI-H460 lung.
The test system of experiment [9] is HCT-116 colon.
Experiment [10] concerns HL-60(TB) leukemia.

Broadly, the GI50 is the concentration at which growth is held to half of that of the control. By TGI is commonly meant the concentration at which net growth stops. In the case of `O=C(Nc1ccc(Cl)cc1)c1cc(-c2ccc(F)cc2)c2sc(=O)[nH]c2n1`, the GI50 in experiment [1] is 1.77 µM; in experiment [2], 2.34 µM; in experiment [3] it was 1.72 µM; in experiment [4], 1.1 µM; in experiment [5], 2.25 µM; in experiment [6] it was 1.99 µM. For the same compound, the GI50 in experiment [7] is 0.739 µM; in [8], 1.73 µM; in [9], 1.43 µM. The TGI in experiment [1] was 4.78 µM; in [2] it was 7.9 µM; in experiment [3], 4.93 µM; in experiment [4], 3.8 µM; in experiment [5], 10.9 µM; in [6], 9.12 µM. Further, the TGI in experiment [7] worked out at 5.25 µM; in experiment [8] it was 4.29 µM; in [9] it was 2.96 µM.

`CCOC(=O)c1cc(/C(=N\O)c2cc(OC)c(OC)c(OC)c2)n2cc(C)cc(C)c12`: the GI50 was 2.34 µM in experiment [1]; 2.28 µM in experiment [10]; 5.38 µM in [3]; 1.72 µM in experiment [4]; 5.78 µM in [5]; 1.95 µM in experiment [6]. Also, the figures for the GI50 in experiment [8] and in experiment [9] were 2.76 µM and 1.86 µM, respectively. The TGI in experiment [1] was 5.7 µM; in experiment [10], 7.57 µM; in experiment [3], > 100 µM; in experiment [4] it was 5.25 µM; in experiment [5] it was > 100 µM; in experiment [6], 5.1 µM. Further, the TGI came out at 7.64 µM in [8] and 3.93 µM in [9].

With `O=C1NC(=O)c2ccc([N+](=O)[O-])c3cccc1c23`, the TGI in [1] came to 34.5 µM; in experiment [2], 32.3 µM; in experiment [3], 26.1 µM; in experiment [4], 32.8 µM; in experiment [5], 52.3 µM; in experiment [6] it was 35.5 µM. Also, the TGI in [7] was 44 µM; in [8], 29.7 µM; in experiment [9], 23.9 µM.

Turning to `COc1ccc(C(C)c2cc3c(cc2OC)OCO3)cc1` (stereo not given), the TGI in experiment [1] was 4.6 µM; in [2] it was > 100 µM; in experiment [10], 2.87 µM; in experiment [3], 17.1 µM; in experiment [5], 3.62 µM; in experiment [6], > 100 µM. Moreover, the TGI in experiment [7] was > 100 µM; in experiment [8], 4.69 µM; in experiment [9], 46.3 µM.

Consider `CC(=O)OC1Oc2ccccc2-c2oc(=O)c(-c3cc4ccc(N(C)C)cc4oc3=O)cc21` (stereo not given), for which the GI50 in experiment [1] is 13 µM; in experiment [2], 13.2 µM; in experiment [10], 8.16 µM; in experiment [3], 10.3 µM; in experiment [4] it was 4.57 µM; in experiment [6], 1.29 µM. Moreover, the GI50 was 4.34 µM in [7], 11.8 µM in experiment [8] and 1.42 µM in [9]. Also, the TGI was 32.1 µM in experiment [1]; 30.8 µM in experiment [2]; > 100 µM in [10]; 37.7 µM in [3]; 21 µM in [4]; 24 µM in [6]. In addition, the TGI in experiment [7] worked out at 30.1 µM; in experiment [8], 33.1 µM; in experiment [9] it was 21.7 µM.

Take `CN(C)CCNC(=O)c1cccc(C(=O)Nc2ccccc2)c1[N+](=O)[O-]`: the TGI in experiment [1], in [2], in experiment [10], in experiment [3], in experiment [4] and in experiment [5] was > 100 µM each time. In addition, the TGI in [7], in [8] and in [9] was > 100 µM throughout.

With `CN(C)CCCn1c2c(c3ccccc3c1=O)C(=O)c1ccccc1-2`, the GI50 was 1.74 µM in experiment [1]; 3.06 µM in experiment [2]; 1.74 µM in experiment [10]; 0.336 µM in experiment [3]; 1.12 µM in experiment [4]; 3.15 µM in experiment [6]. The GI50 in experiment [7] was 3.01 µM; in [8], 0.52 µM; in [9], 0.578 µM. In addition, the TGI in experiment [1] worked out at 5.09 µM; in experiment [2], 14 µM; in experiment [10], 3.85 µM; in experiment [3], 1.34 µM; in [4] it was 3.74 µM; in experiment [6], 48.9 µM. Besides, the TGI came to 14.8 µM in [7], 10.5 µM in experiment [8] and 4.34 µM in [9].

Consider `O=C(CCl)Nc1ccc(Cl)cc1`, for which the GI50 was 5.24 µM in experiment [1]; 3.57 µM in experiment [2]; 4.6 µM in experiment [3]; 3.45 µM in experiment [4]; 11.3 µM in [5]; 5.68 µM in [6]. Moreover, the GI50 in experiment [7] was 3.8 µM; in experiment [8], 3.86 µM; in [9], 2.7 µM. In addition, the TGI was 25.9 µM in experiment [1]; 12.9 µM in experiment [2]; > 100 µM in experiment [3]; 13.3 µM in experiment [4]; 24.9 µM in [5]; 25.3 µM in experiment [6]. The values for the TGI in experiment [7], in experiment [8] and in experiment [9] were 15.6 µM, 16.5 µM and 10.2 µM, respectively.

Regarding `CC(=O)OC[C@]12CC[C@H]3[C@@H](C[C@H]4O[C@]45[C@@H](O)C=CC(=O)[C@]35C)[C@@H]1CC[C@@H]2[C@H](C)[C@H]1CC(C)=C(C)C(=O)O1`, the GI50 in experiment [2] was 0.883 µM and 1.21 µM; in experiment [10] it was 0.243 µM and 0.119 µM; in experiment [3], 0.331 µM and 0.285 µM; in experiment [4], 0.974 µM and 1.89 µM; in experiment [5], 0.822 µM and 0.795 µM; in [6] it was 0.571 µM and 0.331 µM. Besides, the GI50 in experiment [8] was 0.588 µM and 1.07 µM; in [9], 0.277 µM and 0.166 µM. Moreover, the TGI is 2.5 µM in experiment [2]; 0.642 µM and 0.37 µM in experiment [10]; 0.899 µM in experiment [3]; 4.23 µM in experiment [4]; 2.07 µM in experiment [5]; 0.9 µM and 1.06 µM in [6]. For the same compound, the TGI in experiment [8] is 3.53 µM; in [9], 0.6 µM and 0.424 µM.

With `c1ccc(C2=NNC3c4ccccc4-c4ccccc4N3C2)cc1` (stereo not given), the TGI in [1] is > 100 µM; in [2], > 100 µM; in experiment [10], 6.91 µM; in experiment [3], > 100 µM; in experiment [4], > 100 µM; in [6], > 100 µM. The TGI is 92.4 µM in experiment [7], 53.3 µM in [8] and > 100 µM in experiment [9].
